Measurements published in patent US8632612B2, “Compositions for dyeing keratin fibers” (Segetis, Inc., priority 2010, dated 2014).

What was measured:
[1] = Dissolution of hair dye moieties in neat ketal solvents and storage at room temperature (Example 7); type: physicochemical
Text: The respective hair dye compositions and their methods of manufacturing are discussed in detail below.

[2] = Saturated solubility of oxidation dye intermediates in hair dye formulations (UV-Vis against calibration curve); conditions: 10 minutes stirring, three replications

In the case of Oc1cccc(O)c1 [Resorcinol], the dissolution in ketal ([1]; 10% solids in Bu-LGK at 80° C. with agitation) is reported as “dissolved”, the dissolution in ketal ([1]; 10% solids in Et-LGK at 80° C. with agitation) is reported as “dissolved” and the dissolution in ketal ([1]; 10% solids in Et-LPK at room temperature with agitation) is reported as “dissolved”.
In the case of Nc1cccc(O)c1 [m-Aminophenol], the dissolution in ketal ([1]; 5% solids in Et-LGK at room temperature) is reported as “dissolved” and the dissolution in ketal ([1]; 5% solids in Et-LPK at 80° C.) is reported as “dissolved”.
With Nc1ccc(N)cc1 [p-phenylenediamine] the dissolution in ketal ([1]; 1% solids in Et-LPK at 80° C.) was “did not completely dissolve”, the solubility after storage ([1]; 5% and 1% solids in Et-LPK, storage at room temperature) was “a precipitant remained” and the dissolution in ketal ([1]; 5% solids in Bu-LGK at 80° C.) was “dissolved”. The solubility after storage ([1]; 5% solids in Et-LGK (dissolved at 80° C.), 24 hours of storage at room temperature) was “still soluble”, the dissolution in ketal ([1]; 5% solids in Et-LGK at 80° C.) was “dissolved” and the dissolution in ketal ([1]; 5% solids in Et-LPK at 80° C.) was “did not completely dissolve”. For the same compound, the dissolution in ketal ([1]; 25% solids in Bu-LGK at 80° C.) was “partially dissolved”, the “Average Solubility” value ([2]; in formulation 5A (7% Et-LGK), pH 10.2, 27° C.) was 0.07 % wt./wt and the “Average Solubility” value ([2]; in formulation 5B (7% Et-LGK), pH 8.5, 27° C.) was 0.07 % wt./wt. The “Average Solubility” value ([2]; in formulation 6A (7% Et-LPK), pH 10.2, 27° C.) was 0 % wt./wt and the “Average Solubility” value ([2]; in formulation 6B (7% Et-LPK), pH 8.5, 27° C.) was <0.01 % wt./wt.
